The source of these data is ChEMBL document CHEMBL1141384, “Discovery of a potent, selective, and orally active human epidermal growth factor receptor-2 sheddase inhibitor for the treatment of cancer” (J Med Chem, 2007).

SMILES strings stand for the structures. pIC50: −log10 of the molar value. Activity calls are given as the source filed them. The calls are words filed in the database; no cut-off is given here.

As a reminder, the Cmax is the highest concentration seen after dosing. One may read the clearance as the rate of elimination divided by the concentration. Broadly, the pIC50 is the negative decadic logarithm of the IC50, by convention in mol/L. Low values mean a high IC50, high ones a low IC50. What is called AUC(0-t) is the area under the concentration-time curve up to a stated or last time point. Read a low AUC(0-t) as less exposure.

Sequence of 72 kDa type IV collagenase (P08253 whole entry): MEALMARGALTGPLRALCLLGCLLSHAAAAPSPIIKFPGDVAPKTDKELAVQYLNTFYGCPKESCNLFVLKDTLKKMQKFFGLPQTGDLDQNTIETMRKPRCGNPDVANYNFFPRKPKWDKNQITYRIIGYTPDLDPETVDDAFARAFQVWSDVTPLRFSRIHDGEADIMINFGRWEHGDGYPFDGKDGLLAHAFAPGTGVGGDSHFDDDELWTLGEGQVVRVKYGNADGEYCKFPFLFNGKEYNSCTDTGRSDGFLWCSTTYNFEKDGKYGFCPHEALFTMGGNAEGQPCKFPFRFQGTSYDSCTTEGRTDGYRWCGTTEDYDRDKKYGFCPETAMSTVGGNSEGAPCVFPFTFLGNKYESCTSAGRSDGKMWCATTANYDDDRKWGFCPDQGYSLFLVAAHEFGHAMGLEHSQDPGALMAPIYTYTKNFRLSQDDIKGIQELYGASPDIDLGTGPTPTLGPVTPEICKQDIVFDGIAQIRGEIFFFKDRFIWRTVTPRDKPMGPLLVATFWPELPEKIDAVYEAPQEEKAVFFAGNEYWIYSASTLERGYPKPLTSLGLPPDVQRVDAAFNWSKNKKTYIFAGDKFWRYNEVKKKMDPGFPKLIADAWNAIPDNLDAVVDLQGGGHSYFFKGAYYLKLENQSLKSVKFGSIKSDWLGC
Sequence of Matrix metalloproteinase-9 (P14780 whole entry): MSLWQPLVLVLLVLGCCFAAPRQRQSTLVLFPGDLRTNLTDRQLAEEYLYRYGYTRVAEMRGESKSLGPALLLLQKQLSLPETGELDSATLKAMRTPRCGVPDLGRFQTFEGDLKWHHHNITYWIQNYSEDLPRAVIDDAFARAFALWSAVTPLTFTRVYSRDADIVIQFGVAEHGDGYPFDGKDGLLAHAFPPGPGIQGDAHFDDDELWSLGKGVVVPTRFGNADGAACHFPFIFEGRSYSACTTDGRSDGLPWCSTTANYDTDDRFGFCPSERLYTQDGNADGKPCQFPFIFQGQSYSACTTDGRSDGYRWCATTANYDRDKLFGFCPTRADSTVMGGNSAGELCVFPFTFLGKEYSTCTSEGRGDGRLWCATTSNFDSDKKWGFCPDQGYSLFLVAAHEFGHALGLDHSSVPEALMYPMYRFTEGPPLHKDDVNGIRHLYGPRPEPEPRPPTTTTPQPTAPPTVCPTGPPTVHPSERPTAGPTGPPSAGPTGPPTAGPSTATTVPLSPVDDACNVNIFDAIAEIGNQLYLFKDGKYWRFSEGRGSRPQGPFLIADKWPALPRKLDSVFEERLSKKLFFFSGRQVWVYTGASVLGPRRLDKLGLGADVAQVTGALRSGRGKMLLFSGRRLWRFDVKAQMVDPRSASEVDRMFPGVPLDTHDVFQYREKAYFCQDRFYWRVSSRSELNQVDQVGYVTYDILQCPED

Test system in one series: not listed separately
As to the kind of experiment: Cmax in murine at 10 mg/kg, po. The following applies: mouse, in vivo. On the set-up: dose 10 mg/kg, route oral. Format: ADME, organism-based.
Consider `O=C(NO)[C@H]1CC2(CC2)CN[C@@H]1C(=O)N1CC=C(c2ccccc2)CC1`, for which the Cmax worked out at 0.58 µM. This lies in the sub-micromolar range.

Compound `COC(=O)N1CC2(CC2)C[C@H](C(=O)NO)[C@H]1C(=O)N1CC=C(c2ccccc2)CC1` yielded a Cmax of 7.7 µM. This Cmax is about 13-fold higher than that of the compound before.

The target in another series is Receptor tyrosine-protein kinase erbB-2 (Homo sapiens) (UniProt P04626). As to the kind of experiment: Inhibition of Her2 sheddase activity in BT474 cell line. Format: functional, cell-based. Particulars: BT-474.
Sequence of Receptor tyrosine-protein kinase erbB-2 (Homo sapiens) (P04626 whole entry): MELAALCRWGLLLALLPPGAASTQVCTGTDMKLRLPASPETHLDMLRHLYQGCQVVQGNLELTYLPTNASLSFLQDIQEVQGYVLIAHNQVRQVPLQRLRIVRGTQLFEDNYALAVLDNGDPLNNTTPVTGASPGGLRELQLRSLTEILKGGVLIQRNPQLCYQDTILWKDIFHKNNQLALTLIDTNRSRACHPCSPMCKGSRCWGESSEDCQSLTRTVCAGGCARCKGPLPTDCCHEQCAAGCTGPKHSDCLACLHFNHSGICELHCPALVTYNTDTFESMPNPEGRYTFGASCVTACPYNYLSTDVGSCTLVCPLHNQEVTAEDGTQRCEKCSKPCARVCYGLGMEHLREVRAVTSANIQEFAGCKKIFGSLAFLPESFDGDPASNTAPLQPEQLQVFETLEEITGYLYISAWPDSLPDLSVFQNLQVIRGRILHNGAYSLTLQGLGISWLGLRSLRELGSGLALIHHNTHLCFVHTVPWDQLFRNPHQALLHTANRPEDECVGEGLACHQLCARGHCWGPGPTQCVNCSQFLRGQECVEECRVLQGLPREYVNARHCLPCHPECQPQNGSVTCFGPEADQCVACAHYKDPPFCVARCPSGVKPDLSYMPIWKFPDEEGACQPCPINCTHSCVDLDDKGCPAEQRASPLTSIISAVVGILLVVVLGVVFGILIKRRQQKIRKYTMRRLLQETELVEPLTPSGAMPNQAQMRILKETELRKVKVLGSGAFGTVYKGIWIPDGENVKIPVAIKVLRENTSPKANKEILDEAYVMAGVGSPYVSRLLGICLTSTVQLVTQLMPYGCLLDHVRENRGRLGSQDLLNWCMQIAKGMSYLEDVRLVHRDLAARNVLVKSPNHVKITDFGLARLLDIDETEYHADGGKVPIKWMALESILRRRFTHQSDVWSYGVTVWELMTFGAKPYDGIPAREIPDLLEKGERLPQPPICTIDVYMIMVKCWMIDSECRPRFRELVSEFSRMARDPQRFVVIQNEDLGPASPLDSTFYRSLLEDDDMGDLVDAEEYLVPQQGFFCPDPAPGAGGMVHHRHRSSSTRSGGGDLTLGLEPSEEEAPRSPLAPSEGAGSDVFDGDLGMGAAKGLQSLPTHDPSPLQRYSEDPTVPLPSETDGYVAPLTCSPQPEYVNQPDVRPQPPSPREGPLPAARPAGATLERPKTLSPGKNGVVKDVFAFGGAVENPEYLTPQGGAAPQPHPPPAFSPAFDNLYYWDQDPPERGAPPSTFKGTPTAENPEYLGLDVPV
With `CCC(C)NC(=O)[C@@H]1[C@@H](C(=O)NO)CC2(CC2)CN1C` (stereo partly specified), the result was inactive.

`Cc1ccccc1N1CCN(C(=O)[C@H]2NCC3(CC3)C[C@@H]2C(=O)NO)CC1`: the result was inactive.

Test system in a further series: not listed separately
Nature of the series: Clearance in murine. The format is ADME, organism-based. Particulars: mouse, in vivo.
In turn, `O=C(NO)[C@H]1CC2(CC2)CN[C@@H]1C(=O)N1CC=C(c2ccccc2)CC1` gave a clearance of 15 mL/min/kg.

`COC(=O)N1CC2(CC2)C[C@H](C(=O)NO)[C@H]1C(=O)N1CC=C(c2ccccc2)CC1` had a clearance of 6.67 mL/min/kg. This clearance lies about 2.2-fold lower than the previous one.

For another series, the target named is Stromelysin-1 (Homo sapiens, UniProt P08254). As to the kind of experiment: Inhibition of MMP3.
Sequence of Stromelysin-1 (P08254 whole entry): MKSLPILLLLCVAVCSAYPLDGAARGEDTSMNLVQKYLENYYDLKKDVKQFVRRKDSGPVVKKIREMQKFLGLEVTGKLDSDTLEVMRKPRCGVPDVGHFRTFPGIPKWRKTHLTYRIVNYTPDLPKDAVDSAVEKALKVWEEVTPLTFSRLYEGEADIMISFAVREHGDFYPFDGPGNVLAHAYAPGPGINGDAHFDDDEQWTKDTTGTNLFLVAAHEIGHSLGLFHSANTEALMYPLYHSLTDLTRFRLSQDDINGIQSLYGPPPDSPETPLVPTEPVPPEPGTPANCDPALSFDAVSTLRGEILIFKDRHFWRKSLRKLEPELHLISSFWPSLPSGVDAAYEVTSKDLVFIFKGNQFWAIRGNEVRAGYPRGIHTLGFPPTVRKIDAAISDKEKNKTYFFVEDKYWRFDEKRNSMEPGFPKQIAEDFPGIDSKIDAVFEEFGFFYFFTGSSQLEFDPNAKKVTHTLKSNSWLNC
Settings: not given
`O=C(NO)[C@H]1CC2(CC2)CN[C@@H]1C(=O)N1CCN2c3ccccc3CC2C1` (stereo partly specified) showed a pIC50 of under 5.30.

Turning to `O=C(NO)[C@H]1CC2(CC2)CN[C@@H]1C(=O)N1CCN(c2ccccc2)CC1`, the pIC50 is under 5.30.

The compound `O=C(NO)[C@H]1CC2(CC2)CN[C@@H]1C(=O)N1CCC(c2ccccc2)CC1` gave a pIC50 of under 5.30.

`O=C(NO)[C@H]1CC2(CC2)CN[C@@H]1C(=O)N1CC=C(c2ccccc2)CC1`: the pIC50 is 5.92.

For `CCC(C)NC(=O)[C@@H]1[C@@H](C(=O)NO)CC2(CC2)CN1C` (stereo partly specified), the pIC50 is under 6.00.

Compound `Cc1ccccc1N1CCN(C(=O)[C@H]2NCC3(CC3)C[C@@H]2C(=O)NO)CC1` gave a pIC50 of under 5.30.

Compound `COC(=O)N1CC2(CC2)C[C@H](C(=O)NO)[C@H]1C(=O)N1CC=C(c2ccccc2)CC1` gave a negative logarithm of the IC50 (pIC50) of 5.40.

Test system in the next series: not listed separately
Nature of the series: Protein binding in murine plasma. Format: ADME, organism-based. Particulars: mouse, read-out: PPB (converted).
Consider `O=C(NO)[C@H]1CC2(CC2)CN[C@@H]1C(=O)N1CC=C(c2ccccc2)CC1`, for which the fraction unbound was 0.4.

`COC(=O)N1CC2(CC2)C[C@H](C(=O)NO)[C@H]1C(=O)N1CC=C(c2ccccc2)CC1`: the fraction unbound was 0.7.

Test system in a further series: not listed separately
As to the kind of experiment: AUC (0-24h) in murine at 10 mg/kg, po. Particulars: mouse, in vivo. On the set-up: time < 24 hr, dose 10 mg/kg, route oral. The format is ADME, organism-based.
As to `O=C(NO)[C@H]1CC2(CC2)CN[C@@H]1C(=O)N1CC=C(c2ccccc2)CC1`, the exposure AUC(0-t) at 24 h was determined as 0.35 µM·h.

The compound `COC(=O)N1CC2(CC2)C[C@H](C(=O)NO)[C@H]1C(=O)N1CC=C(c2ccccc2)CC1` displayed an area under the curve AUC(0-t) at 24 h of 3.9 µM·h.

The next series concerns the target 72 kDa type IV collagenase (Homo sapiens, UniProt P08253). As to the kind of experiment: Inhibition of MMP2.
Settings: not given
The compound `O=C(NO)[C@H]1CC2(CC2)CN[C@@H]1C(=O)N1CCN2c3ccccc3CC2C1` (stereo partly specified) showed a pIC50 of 6.46.

Compound `O=C(NO)[C@H]1CC2(CC2)CN[C@@H]1C(=O)N1CCN(c2ccccc2)CC1` had a pIC50 of 6.70. This pIC50 is 0.24 log units higher than that of the compound before.

The compound `O=C(NO)[C@H]1CC2(CC2)CN[C@@H]1C(=O)N1CCC(c2ccccc2)CC1` showed a pIC50 of 6.35.

`O=C(NO)[C@H]1CC2(CC2)CN[C@@H]1C(=O)N1CC=C(c2ccccc2)CC1` showed a pIC50 of 8.30.

Compound `CCC(C)NC(=O)[C@@H]1[C@@H](C(=O)NO)CC2(CC2)CN1C` (stereo partly specified) gave a pIC50 of under 6.00.

On to `Cc1ccccc1N1CCN(C(=O)[C@H]2NCC3(CC3)C[C@@H]2C(=O)NO)CC1`, for which the negative-log IC50 (pIC50) was under 5.30.

The compound `COC(=O)N1CC2(CC2)C[C@H](C(=O)NO)[C@H]1C(=O)N1CC=C(c2ccccc2)CC1` had a pIC50 of 7.41.

A further series deals with T1, Interstitial collagenase (Homo sapiens, UniProt P03956).
T1 sequence (P03956 whole entry): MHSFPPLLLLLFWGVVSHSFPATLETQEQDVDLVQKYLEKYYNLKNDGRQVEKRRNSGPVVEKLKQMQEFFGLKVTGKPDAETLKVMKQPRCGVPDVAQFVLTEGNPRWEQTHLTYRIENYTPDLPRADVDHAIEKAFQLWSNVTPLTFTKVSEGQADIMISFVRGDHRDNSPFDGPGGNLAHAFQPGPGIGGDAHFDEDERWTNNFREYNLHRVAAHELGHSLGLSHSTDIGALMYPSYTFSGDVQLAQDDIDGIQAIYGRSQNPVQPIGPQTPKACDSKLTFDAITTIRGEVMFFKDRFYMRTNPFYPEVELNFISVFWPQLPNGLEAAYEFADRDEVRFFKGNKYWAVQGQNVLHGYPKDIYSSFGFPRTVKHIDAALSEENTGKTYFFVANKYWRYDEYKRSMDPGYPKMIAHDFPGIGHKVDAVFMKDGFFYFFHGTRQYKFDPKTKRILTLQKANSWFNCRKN
Nature of the series: Inhibition of MMP1.
Settings: not given
Take `O=C(NO)[C@H]1CC2(CC2)CN[C@@H]1C(=O)N1CCN2c3ccccc3CC2C1` (stereo partly specified): the pIC50 is under 5.30.

Take `O=C(NO)[C@H]1CC2(CC2)CN[C@@H]1C(=O)N1CCN(c2ccccc2)CC1`: the pIC50 was under 5.30.

Take `O=C(NO)[C@H]1CC2(CC2)CN[C@@H]1C(=O)N1CCC(c2ccccc2)CC1`: the pIC50 was under 5.30.

`O=C(NO)[C@H]1CC2(CC2)CN[C@@H]1C(=O)N1CC=C(c2ccccc2)CC1` had a pIC50 of 5.41.

In turn, `CCC(C)NC(=O)[C@@H]1[C@@H](C(=O)NO)CC2(CC2)CN1C` (stereo partly specified) had a negative-log IC50 (pIC50) of under 5.30.

As to `Cc1ccccc1N1CCN(C(=O)[C@H]2NCC3(CC3)C[C@@H]2C(=O)NO)CC1`, the pIC50 was under 5.30.

In the case of `COC(=O)N1CC2(CC2)C[C@H](C(=O)NO)[C@H]1C(=O)N1CC=C(c2ccccc2)CC1`, the pIC50 is under 5.30.

Another series has as its target Matrix metalloproteinase-9 (Homo sapiens, UniProt P14780). As to the kind of experiment: Inhibition of MMP9.
Settings: not given
The compound `O=C(NO)[C@H]1CC2(CC2)CN[C@@H]1C(=O)N1CCN2c3ccccc3CC2C1` (stereo partly specified) gave a pIC50 of under 5.30.

Regarding `O=C(NO)[C@H]1CC2(CC2)CN[C@@H]1C(=O)N1CCN(c2ccccc2)CC1`, the pIC50 was 6.19.

In turn, `O=C(NO)[C@H]1CC2(CC2)CN[C@@H]1C(=O)N1CCC(c2ccccc2)CC1` showed a pIC50 of under 5.30.

In turn, `O=C(NO)[C@H]1CC2(CC2)CN[C@@H]1C(=O)N1CC=C(c2ccccc2)CC1` had a pIC50 of 6.95.

Compound `CCC(C)NC(=O)[C@@H]1[C@@H](C(=O)NO)CC2(CC2)CN1C` (stereo partly specified) showed a pIC50 of under 5.30.

`Cc1ccccc1N1CCN(C(=O)[C@H]2NCC3(CC3)C[C@@H]2C(=O)NO)CC1` showed a pIC50 of under 5.30.

The compound `COC(=O)N1CC2(CC2)C[C@H](C(=O)NO)[C@H]1C(=O)N1CC=C(c2ccccc2)CC1` had a pIC50 of 6.37.

The target of another series is T2, Disintegrin and metalloproteinase domain-containing protein 10 (Homo sapiens, UniProt O14672).
T2 sequence (O14672 whole entry): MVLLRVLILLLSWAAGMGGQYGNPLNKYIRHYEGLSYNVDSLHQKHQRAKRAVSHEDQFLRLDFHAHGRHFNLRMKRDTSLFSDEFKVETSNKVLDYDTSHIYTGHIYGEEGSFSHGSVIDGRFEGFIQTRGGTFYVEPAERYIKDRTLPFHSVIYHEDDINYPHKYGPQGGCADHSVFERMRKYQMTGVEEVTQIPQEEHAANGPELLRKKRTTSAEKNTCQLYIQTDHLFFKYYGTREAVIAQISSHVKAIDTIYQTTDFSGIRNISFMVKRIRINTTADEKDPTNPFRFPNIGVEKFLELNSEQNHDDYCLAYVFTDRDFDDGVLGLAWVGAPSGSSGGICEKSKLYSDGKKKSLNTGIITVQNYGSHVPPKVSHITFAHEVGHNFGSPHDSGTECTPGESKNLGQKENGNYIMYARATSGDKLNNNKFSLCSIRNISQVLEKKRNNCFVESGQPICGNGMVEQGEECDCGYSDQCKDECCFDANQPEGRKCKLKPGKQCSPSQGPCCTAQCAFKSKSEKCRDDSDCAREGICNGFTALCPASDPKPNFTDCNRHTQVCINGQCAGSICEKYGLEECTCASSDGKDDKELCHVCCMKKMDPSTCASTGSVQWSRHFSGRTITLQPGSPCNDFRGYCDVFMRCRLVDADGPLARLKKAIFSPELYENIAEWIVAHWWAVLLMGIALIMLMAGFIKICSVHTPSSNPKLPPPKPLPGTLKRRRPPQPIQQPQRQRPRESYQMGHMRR
As to the kind of experiment: Inhibition of ADAM10.
Settings: not given
As for `O=C(NO)[C@H]1CC2(CC2)CN[C@@H]1C(=O)N1CCN2c3ccccc3CC2C1` (stereo partly specified), the pIC50 was 6.48.

Take `O=C(NO)[C@H]1CC2(CC2)CN[C@@H]1C(=O)N1CCC(c2ccccc2)CC1`: the negative logarithm of the IC50 (pIC50) is 6.49. The pIC50 values of the last two compounds are within 0.2 log units of each other.

`Cc1ccccc1N1CCN(C(=O)[C@H]2NCC3(CC3)C[C@@H]2C(=O)NO)CC1` had a negative logarithm of the IC50 (pIC50) of under 5.30.
